Laboratory results as given in patent publication US20260285850A1, “SUBSTITUTED OXAZOLIDINONES AND IMIDAZOLINONES AS HERBICIDES” (FMC CORPORATION, priority 2023, published 2026).

What was measured:
Type in all cases: in vivo
[1] = system: kochia (Bassia scoparia); assay: Test A postemergence application, visual injury rating 0-100; details: 10 days
Excerpt: (§1) Seeds of plant species selected from barnyardgrass (Echinochloa crus-galli), blackgrass (Alopecurus myosuroides), corn (Zea mays), foxtail, giant (giant foxtail, Setaria faberi), green foxtail (Setaria viridis), goosegrass (Eleusine indica), kochia (Bassia scoparia), oat, wild (wild oat, Avena fatua), palmer (palmer amaranth, palmer pigweed, Amaranthus palmeri), ragweed (common ragweed, Ambrosia artemisiifolia), ryegrass, Italian (italian ryegrass, Lolium multiflorum), soybean (Glycine max) and wheat (Triticum aestivum) were planted into a blend of loam soil and sand and treated preemergence with a directed soil spray using test chemicals formulated in a non-phytotoxic solvent mixture which included a surfactant.
(§2) At the same time, plants selected from these crops and weed species and also galium (catchweed bedstraw, Galium aparine) and horseweed (Erigeron canadensis) were planted in pots containing the same blend of loam soil and sand and treated with postemergence applications of test chemicals formulated in the same manner. Plants ranged in height from 2 to 10 cm and were in the one- to two-leaf stage for the postemergence treatment. Treated plants and untreated controls were maintained in a greenhouse for 10 days, after which time all treated plants were compared to untreated controls and visually evaluated for injury. Plant response ratings, summarized in Table A, are based on a 0 to 100 scale where 0 is no effect and 100 is complete control. A dash (-) response means no test result.

[2] = system: blackgrass (Alopecurus myosuroides); assay: as above; details: 10 days
Excerpt: as §1, §2

[3] = system: corn (Zea mays); assay: as above; details: 10 days
Excerpt: as §1, §2

[4] = system: green foxtail (Setaria viridis); assay: as above; details: 10 days
Excerpt: as §1, §2

[5] = system: barnyardgrass (Echinochloa crus-galli); assay: as above; details: 10 days
Excerpt: as §1, §2

[6] = system: wheat (Triticum aestivum); assay: as above; details: 10 days
Excerpt: as §1, §2

[7] = system: soybean (Glycine max); assay: as above; details: 10 days
Excerpt: as §1, §2

[8] = system: ryegrass, Italian (italian ryegrass, Lolium multiflorum); assay: as above; details: 10 days
Excerpt: as §1, §2

[9] = system: oat, wild (wild oat, Avena fatua); assay: as above; details: 10 days
Excerpt: as §1, §2

[10] = system: horseweed (Erigeron canadensis); assay: as above; details: 10 days
Excerpt: as §1, §2

[11] = system: ragweed (common ragweed, Ambrosia artemisiifolia); assay: as above; details: 10 days
Excerpt: as §1, §2

[12] = system: palmer (palmer amaranth, palmer pigweed, Amaranthus palmeri); assay: as above; details: 10 days
Excerpt: as §1, §2

[13] = system: kochia (Bassia scoparia); assay: Test A preemergence soil spray, visual injury rating 0-100; details: 10 days, 0 = no effect, 100 = complete control
Excerpt: as §1, §2

[14] = system: blackgrass (Alopecurus myosuroides); assay: as above; details: 10 days, 0 = no effect, 100 = complete control
Excerpt: as §1, §2

[15] = system: corn (Zea mays); assay: as above; details: 10 days, 0 = no effect, 100 = complete control
Excerpt: as §1, §2

[16] = system: green foxtail (Setaria viridis); assay: as above; details: 10 days, 0 = no effect, 100 = complete control
Excerpt: as §1, §2

[17] = system: barnyardgrass (Echinochloa crus-galli); assay: as above; details: 10 days, 0 = no effect, 100 = complete control
Excerpt: as §1, §2

[18] = system: wheat (Triticum aestivum); assay: as above; details: 10 days, 0 = no effect, 100 = complete control
Excerpt: as §1, §2

[19] = system: soybean (Glycine max); assay: as above; details: 10 days, 0 = no effect, 100 = complete control
Excerpt: as §1, §2

[20] = system: ryegrass, Italian (italian ryegrass, Lolium multiflorum); assay: as above; details: 10 days, 0 = no effect, 100 = complete control
Excerpt: as §1, §2

[21] = system: oat, wild (wild oat, Avena fatua); assay: as above; details: 10 days, 0 = no effect, 100 = complete control
Excerpt: as §1, §2

[22] = system: ragweed (common ragweed, Ambrosia artemisiifolia); assay: as above; details: 10 days, 0 = no effect, 100 = complete control
Excerpt: as §1, §2

[23] = system: palmer (palmer amaranth, palmer pigweed, Amaranthus palmeri); assay: as above; details: 10 days, 0 = no effect, 100 = complete control
Excerpt: as §1, §2

[24] = system: rice (Oryza sativa); assay: Test B flooded paddy test, visual plant response rating 0-100; details: 250 g ai/ha, Flood, applied to paddy water, evaluated after 13 days
Procedure, shortened: (§3)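 Visual scores versus untreated controls were recorded 13 days after treatment of greenhouse-held plants. At the 2-leaf stage, pots were flooded 3 cm above the soil surface and compounds added straight to the water.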

[25] = system: barnyardgrass (Echinochloa crusgalli); assay: as above; details: 250 g ai/ha, Flood, applied to paddy water, evaluated after 13 days
Procedure, shortened: as §3

[26] = system: ducksalad (Heteranthera limosa); assay: as above; details: 250 g ai/ha, Flood, applied to paddy water, evaluated after 13 days
Procedure, shortened: as §3

[27] = system: sedge, umbrella (small-flower umbrella sedge, Cyperus difformis); assay: as above; details: 250 g ai/ha, Flood, applied to paddy water, evaluated after 13 days
Procedure, shortened: as §3

[28] = 31 g ai/ha, postemergence, 0 = no effect, 100 = complete control
[29] = Postemergence, 125 g ai/ha, 0 is no effect, 100 is complete control

CONC(=O)C1CC(NC(=O)C2(C)CN(c3cc(F)cc(F)c3)C(=O)O2)CO1 (centres unmarked) [Compound 39]
Kochia plant response rating (0-100) [1, 28]: 20 | Kochia plant response rating (0 to 100 scale) [1, 29]: 50 | Blackgrass plant response rating (0-100) [2, 28]: 90 | Blackgrass plant response rating (0 to 100 scale) [2, 29]: 100 | Corn plant response rating (0-100) [3, 28]: 0 | Corn plant response rating (0 to 100 scale) [3, 29]: 100 | Foxtail, Green plant response rating (0-100) [4, 28]: 20 | Foxtail, Green plant response rating (0 to 100 scale) [4, 29]: 90 | Barnyardgrass plant response rating (0-100) [5, 28]: 10 | Barnyardgrass plant response rating (0 to 100 scale) [5, 29]: 90 | Wheat plant response rating (0-100) [6, 28]: 90 | Wheat plant response rating (0 to 100 scale) [6, 29]: 90 | Soybean plant response rating (0-100) [7, 28]: 20 | Soybean plant response rating (0 to 100 scale) [7, 29]: 60 | Ryegrass, Italian plant response rating (0-100) [8, 28]: 30 | Ryegrass, Italian plant response rating (0 to 100 scale) [8, 29]: 80 | Oat, Wild plant response rating (0-100) [9, 28]: 90 | Oat, Wild plant response rating (0 to 100 scale) [9, 29]: 90 | Horseweed plant response rating (0-100) [10, 28]: 10 | Horseweed plant response rating (0 to 100 scale) [10, 29]: 0 | Ragweed plant response rating (0-100) [11, 28]: 0 | Ragweed plant response rating (0 to 100 scale) [11, 29]: 20 | Amaranth, Palmer plant response rating (0-100) [12, 28]: 0 | Amaranth, Palmer / Pigweed, Palmer plant response rating (0 to 100 scale) [12, 29]: 20 | Kochia plant response rating (0-100) ([13]; 31 g ai/ha): 0 | Kochia plant response rating (0 to 100 scale) ([13]; 125 g ai/ha): 20 | Blackgrass plant response rating (0-100) ([14]; 31 g ai/ha): 0 | Blackgrass plant response rating (0 to 100 scale) ([14]; 125 g ai/ha): 60 | Corn plant response rating (0-100) ([15]; 31 g ai/ha): 0 | Corn plant response rating (0 to 100 scale) ([15]; 125 g ai/ha): 0 | Foxtail, Green plant response rating (0-100) ([16]; 31 g ai/ha): 0 | Foxtail, Green plant response rating (0 to 100 scale) ([16]; 125 g ai/ha): 0 | Barnyardgrass plant response rating (0-100) ([17]; 31 g ai/ha): 0 | Barnyardgrass plant response rating (0 to 100 scale) ([17]; 125 g ai/ha): 20 | Wheat plant response rating (0-100) ([18]; 31 g ai/ha): 0 | Wheat plant response rating (0 to 100 scale) ([18]; 125 g ai/ha): 90 | Soybean plant response rating (0-100) ([19]; 31 g ai/ha): 0 | Soybean plant response rating (0 to 100 scale) ([19]; 125 g ai/ha): 10 | Ryegrass, Italian plant response rating (0-100) ([20]; 31 g ai/ha): 0 | Ryegrass, Italian plant response rating (0 to 100 scale) ([20]; 125 g ai/ha): 40 | Oat, Wild plant response rating (0-100) ([21]; 31 g ai/ha): 0 | Oat, Wild plant response rating (0 to 100 scale) ([21]; 125 g ai/ha): 90 | Ragweed plant response rating (0-100) ([22]; 31 g ai/ha): 0 | Ragweed plant response rating (0 to 100 scale) ([22]; 125 g ai/ha): 0 | Amaranth, Palmer plant response rating (0-100) ([23]; 31 g ai/ha): 0 | Amaranth, Palmer plant response rating (0 to 100 scale) ([23]; 125 g ai/ha): 0 | Plant response rating, Rice (0 to 100 scale, 0 is no effect and 100 is complete control) [24]: 0 | Plant response rating, Barnyardgrass (0 to 100 scale, 0 is no effect and 100 is complete control) [25]: 0 | Plant response rating, Ducksalad (0 to 100 scale, 0 is no effect and 100 is complete control) [26]: 0 | Plant response rating, Sedge, Umbrella (0 to 100 scale, 0 is no effect and 100 is complete control) [27]: 0
